Legend:
[1] = system: Landrace pig bladder strips; experiment: In vitro functional model: field-stimulated bladder tissue strips; conditions: dose dependent over concentration range of 10^−9 to 10^−5 M; control agonist
Experimental: In vitro Functional Model
Compounds were evaluated for functional BK channel opening activity using tissue strips obtained from Landrace pig bladders. Landrace pig bladders were obtained from female Landrace pigs of 9-30 kg. Landrace pigs were euthanized with an intraperitoneal injection of pentobarbital solution, Somlethal®, J. A. Webster Inc., Sterling Mass. The entire bladder was removed and immediately placed into Krebs Ringer bicarbonate solution (composition, mM: NaCl, 120; NaHCO3, 20; dextrose, 11; KCl, 4.7; CaCl2, 2.5; MgSO4, 1.5; KH2PO4, 1.2; K2EDTA, 0.01, equilibrated with 5% CO2/95% O2 pH 7.4 at 37° C.). Propranolol (0.004 mM) was included in all of the assays to block β-adrenoceptors. The trigonal and dome portions were discarded. Strips 3-5 mm wide and 20 mm long were prepared from the remaining tissue cut in a circular fashion. The mucosal layer was removed. One end was fixed to a stationary glass rod and the other to a Grass FT03 transducer at a basal preload of 1.0 gram. Two parallel platinum electrodes were included in the stationary glass rod to provide field stimulation of 0.05 Hz, 0.5 milli-seconds at 20 volts. […] The maximal efficacy of each compound (expressed as % relative to P1075) is reported. […] Agonist potencies were also expressed as an index relative to P1075. The index was calculated by dividing the ED50 for P1075 by the ED50 for the test agonist in a given tissue. […]

melting point [°C] | Structure (SMILES) | effect on stimulated twitch of bladder strips [1]
 | CCC(C)(C)N=C(NC#N)Nc1cccnc1 [Example P1075] | completely eliminated the stimulated twitch
207 to 209 | N#Cc1c(N2CCC[C@H]2CO)[nH]c2cccnc12 [Example 10, (S)-2-(2-Hydroxymethyl-pyrrolidin-1-yl)-1H-pyrrolo[3,2-b]pyridine-3-carbonitrile] | 
241 to 242 | N#Cc1c(N2CCCCC2)[nH]c2cccnc12 [Example 18, 2-Piperidin-1-yl-1H-pyrrolo[3,2-b]pyridine-3-carbonitrile] | 

From patent publication US20040192697A1, “Pyrrolopyridine potassium channel openers” (priority 2002, published 2004)
